The values below are quoted from earlier work in US20070098750A1, “PESTICIDAL COMPOSITIONS CONTAINING ISOPROPYL MYRISTATE AND ANALOGS OF SAME AS A SYNERGIST FOR PLANT ESSENTIAL OILS” (EcoSmart Technologies, Inc., priority 2005, published 2007).

Structures are written as SMILES.

With `CCCCOCCOCCOCc1cc2c(cc1CCC)OCO2` [PBO, piperonyl butoxide], for the setting “even at the lowest doses, 30 mg/kg/day”, the Chronic toxicity finding result is recorded as “increased liver weights”. Besides, the “Carcinogenicity finding in animal studies” value (even treatments as low as 1.2%) is given as “hepatocellular carcinomas”.
